Results published in ChEMBL document CHEMBL2396534, “Long-chain triazolyl acids as inhibitors of osteoclastogenesis” (2013).
The source made the active and inactive calls. The rule behind the calls is not given here.

Columns and labels:
Bone marrow cell [1] = assay: Inhibition of osteoclastogenesis in CD1 mouse bone marrow cells at 0.1 to 10 ug/ml added on day 2 and day 4 measured on day 7 by TRAP assay; type: functional, cell-based
Bone marrow cell [2] = assay: Inhibition of osteoclastogenesis in CD1 mouse bone marrow cells at 37 uM added on day 2 and day 4 measured on day 7 by TRAP assay relative to control; type: functional
Bone marrow cell [3] = assay: Inhibition of osteoclastogenesis in CD1 mouse bone marrow cells at 72 uM added on day 2 and day 4 measured on day 7 by TRAP assay relative to control; type: functional
Bone marrow cell [4] = assay: Inhibition of osteoclastogenesis in CD1 mouse bone marrow cells at 0.01 ug/ml added on day 2 and day 4 measured on day 7 by TRAP assay relative to control; type: functional
Bone marrow cell [5] = assay: Inhibition of osteoclastogenesis in CD1 mouse bone marrow cells at 5 ug/ml added on day 2 and day 4 measured on day 7 by TRAP assay relative to GW9508; type: functional, cell-based

SMILES	inhibition (Bone marrow cell [1])	inhibition at 37 µM (Bone marrow cell [2])	inhibition at 72 µM (Bone marrow cell [3])	inhibition at 0.01 µg/mL (Bone marrow cell [4])	inhibition (Bone marrow cell [5])
CCCCCCCCCn1cc(CCCC(=O)O)nn1	Active	22.2%	–	–	–
CCCCCCCCCCCCCOCC(=O)O	–	100%	–	–	–
COCCOCCOCCCCCCCC(=O)O	–	100%	–	–	–
CCCCCCCCCCCn1cc(CC(=O)O)nn1	–	38.8%	–	–	–
CCCOCCCCCCCCCCCC(=O)O	Dose-dependent effect	73.2%	–	–	–
O=C(O)CCc1ccc(NCc2cccc(Oc3ccccc3)c2)cc1 [GW9508]	Dose-dependent effect	–	28.2%	–	–
CCCCCOCCCCCCCCCC(=O)O	inactive	100%	–	–	–
CCCCCCCCCCC#CCCCCCC(=O)O [OSTEOPROTEGERIN]	–	–	–	32.6%	–
CCCCCCCCCCn1cc(CCC(=O)O)nn1	Active	26.7%	–	–	–
CCCCCCCn1cc(CCCCCC(=O)O)nn1	Dose-dependent effect	21.5%	–	–	Active
CCCCCCCCCCCCOCCC(=O)O	Dose-dependent effect	80.8%	–	–	–
CCCCCn1cc(CCCCCCCC(=O)O)nn1	–	33.8%	–	–	–
CCCCCCOCCCCCCCCC(=O)O	inactive	100%	–	–	–
CCCCCCCCCOCCCCCC(=O)O	inactive	100%	–	–	–
CCn1cc(CCCCCCCCCCC(=O)O)nn1	Dose-dependent effect	16.9%	–	–	Active
CCCCCCCCCCCCCCCC(=O)O [PALMITIC ACID]	Active	73.8%	–	–	Active
CCCCCCCCCCOCCCCC(=O)O	Dose-dependent effect	65.4%	–	–	–
